Earlier results in US20070281997A1, “TREATMENT OF HOT FLASHES USING MUSCARINIC RECEPTOR ANTAGONISTS” (priority 2006, published 2007).

Tested on: hot flashes
Conditions: men receiving androgen deprivation therapy; previous reports, pilot studies

Row | Structure (SMILES) | efficacy to reduce hot flashes
1 | COc1ccc(C(CN(C)C)C2(O)CCCCC2)cc1 (stereo not drawn) [venlafaxine] | shown efficacy
2 | CC(=O)[C@@]1(O)CC[C@H]2[C@@H]3C=C(C)C4=CC(=O)CC[C@]4(C)[C@H]3CC[C@@]21C [megasterol] | efficacious
3 | Fc1ccc([C@@H]2CCNC[C@H]2COc2ccc3c(c2)OCO3)cc1 [paroxetine] | shown efficacy
